Source: PMC7504215, “Copper(II) Complexes with Mixed Heterocycle Ligands as Promising Antibacterial and Antitumor Species” (Molecules, 2020)
Like-named read-outs stand apart in the source and are kept apart here.

Assays:
E. coli 25922 = assay: MIC assay, liquid medium microdilution (planktonic growth); assay type: cell-based, Escherichia coli; details: E. coli 25922, 24 h at 37 °C
P. aeruginosa 9027 = assay: MBEC assay, micro-titer method (biofilm); assay type: cell-based, Pseudomonas aeruginosa
Experimental: (§1) The antibacterial assays were performed on Gram-negative (Escherichia coli ATCC 25922, E. coli 5, Pseudomonas aeruginosa ATCC 27853, P. aeruginosa ATCC 9027) and Gram-positive (Staphylococcus aureus ATCC 25923, S. aureus ATCC 6538, MRSA (Meticillin-resistant S. aureus) 388, ATCC, American Type Culture Collection) bacterial strains. Microbial suspensions (1.5 × 10^8 CFU/mL; colony forming units (CFU)) corresponding to 0.5 McFarland density obtained from 15 to 18-h bacterial cultures developed on solid media were used. The antimicrobial activity was tested on Mueller–Hinton agar medium.
(§2) The assessment of the complexes’ influence on the microbial ability to colonize an inert substratum with the establishment of the minimal biofilm eradication concentration (MBEC) was performed by the micro-titer method, following previously described protocols. The absorbance at 490 nm was measured with an Apollo LB 911ELISA (Berthold Technologies GmbH & Co. KG, Waltham, MA, USA) reader. All experiments were performed in triplicates.

P. aeruginosa 27853 = assay: MBEC assay, micro-titer method (biofilm); assay type: cell-based, Pseudomonas aeruginosa
Experimental: as §1, §2

[1] = system: B16 (melanoma) tumor cells; assay: MTT cell viability assay; assay type: cell-based, Mouse
Experimental: The cytotoxicity of ligand and copper(II) complexes was tested on normal BJ cell as well as on B16 (melanoma) tumor cells, which were grown for 48 h in culture medium containing the tested complexes in 0–25 μg/mL concentration range.
Human fibroblast cells (BJ-ATCC CRL-2522, Manassas, VA, USA) were grown in minimal essential medium (MEM) supplemented with 2 mM L-Glutamine, 10% fetal calf serum (FCS), 100 units/mL of penicillin and 100 µg/mL of streptomycin at 37 °C in a humidified incubator under an atmosphere containing 5% CO2. Mouse melanoma cells (B16-ATCC CRL-6475, Manassas, VA, USA) were grown in DMEM (Dulbecco’s Modified Eagle Medium) supplemented with similar reagents as MEM. All cell cultivation media and reagents were purchased from Biochrom AG (Berlin, Germany) and Sigma-Aldrich (Darmstadt, Germany).
Cell viability was evaluated using 3-(4,5-dimethylthiazol-2-yl)-2,5-diphenyltetrazolium bromide (MTT) assay, as described previously. First, the cells were seeded in 96-well plates (20,000 cells/well) and cultured for 24 h in medium. After overnight incubation, the medium was changed and the investigated sample in concentration varying from […] was added for 24 h. The negative control was represented by cells cultivated in medium without the investigated compounds. Following incubation, the medium was changed and the MTT solution was added to each well to a final concentration of 1 mg/mL and incubated for additional 4 h, at 37 °C. Finally, the medium was collected and DMSO was used to dissolve the insoluble formazan product. The absorbance of the samples was recorded at 570 nm using a plate reader Mithras 940 (Berthold). The data were corrected for the background and the percentage of viable cells was obtained using the equation:Cell viability = [(A570 of treated cells)/(A570 of untreated cells)] × 100%
The half-maximal inhibitory concentration (IC50) was determined by fitting the data with a logistical sigmoidal equation using the software Origin 8.1 from Microcal Inc. (Los Angeles, CA, USA).

sod1Δ cells = assay type: cell-based, Saccharomyces cerevisiae; details: sod1Δ cells lacking Cu/Zn-superoxide dismutase Sod1
Experimental: (§3) The Saccharomyces cerevisiae laboratory strain BY4741 (MATa; his3Δ1; leu2Δ0; met15Δ0; ura3Δ0), considered wild type (WT), and the isogenic strains sod1Δ and sod2Δ lacking the genes SOD1 (encoding Cu/Zn-superoxide dismutase) and SOD2 (encoding Mn-superoxide dismutase) were purchased from EUROSCARF (Frankfurt, Germany). Cells were maintained and manipulated and grown in YPD medium (1% w/v yeast extract, 2% w/v peptone, 2% w/v glucose; 2% w/v agar was added for solid media). Complexes were added to autoclaved media from DMSO sterile stocks (10 mM). To determine the effect of compounds on yeast growth, a fresh overnight pre-culture was 10^3-fold diluted in YPD and incubated (200 rpm, 30 °C) until the culture reached a density of 5 × 10^5 cells/mL. At this point, the compounds were added to the desired concentrations, and cell proliferation was monitored at 660 nm in a 96-well multi-scanner autoreader plate reader equipped with a thermostat and shaker (Varioskan Thermo Fischer Scientific, Vantaa, Finland). The uptake of compounds by yeast cells was determined indirectly by measuring the increase of the total cellular copper content normalized to the total cellular protein determined by Bradford assay. All determinations were done on three biological replicates. The IC50 was calculated by nonlinear regression analysis using the Graphpad Prism software.

sod2Δ cells = assay type: cell-based, Saccharomyces cerevisiae; details: sod2Δ cells lacking Mn-superoxide dismutase Sod2
Experimental: as §3

BJ cells = assay: Phalloidin staining and cell imaging (cytoskeleton, nucleus); assay type: cell-based, Human; details: 24 h, 6 μg/mL
Experimental: Cytoskeleton actin filaments of BJ and B16 cells were stained with phalloidin-FITC (Sigma-Aldrich, USA) according to the manufacturer’s protocol. Briefly, cells were washed with PBS (5 min, 3 times), fixed for 5 min with 3% paraformaldehyde, washed three times with PBS, permeabilized with 0.1% Triton X-100 in PBS for 15 min, washed three times with PBS, stained with 20 μg mL^−1 phalloidin-FITC at room temperature for 1 h and washed again three times with PBS. Cell nucleus was stained with 8 μM of Hoechst 33342 solution for 10 min, washed three times with PBS and finally, mounted and sealed on glass slides with FluorSave™ Reagent (Merck Millipore, Germany). The fluorescence images were acquired using an Andor DSD2 Confocal Unit (Andor, Ireland), mounted on an epifluorescence microscope, Olympus BX-51 (Olympus, Germany), equipped with a 40x and 100x objective and an appropriate DAPI/Hoechst filter cube (excitation filter 390/40 m, dichroic mirror 405 nm and emission filter 452/45 nm) and GFP/FITC filter cube (excitation filter 466/40 nm, dichroic mirror 488 nm and emission filter 525/54 nm).

[2] = B16 cells, 48 h, MTT, read-out: IC50 B16 Cells 48 h

Compound | MIC (E. coli 25922) [µM] | MBEC value (P. aeruginosa 9027) [mM] | MBEC value (P. aeruginosa 27853) [mM] | IC50 B16 Cells 24 h ([1]; B16 cells, 24 h, MTT) [µg/mL] | IC50 ([1]; B16 cells, 24 h, MTT, read-out: IC50 B16 Cells 24 h) [µM] | IC50 B16 Cells 48 h ([1]; B16 cells, 48 h, MTT) [µg/mL] | IC50 [1, 2] [µM] | Toxicity compared with WT yeast (sod1Δ cells) | Toxicity compared with WT yeast (sod2Δ cells) | Cell morphology (cytoskeleton and nucleus) (BJ cells) | Effect on viability of B16 cells ([1]; 24 h of treatment, 0–25 μg/mL)
Cc1cc(-c2ccccc2)nc2ncnn12.[Cu+2].[O-][Cl+3]([O-])([O-])[O-].[O-][Cl+3]([O-])([O-])[O-].c1cnc2c(c1)ccc1cccnc12.c1cnc2c(c1)ccc1cccnc12 [(2), [Cu(phen)2(pmtp)](ClO4)2] | 20 | 0.01 | 0.09 | 6.25 | 7.5 | 3.72 | 4 | even more toxic | even more toxic | affects the cell morphology | –
Cc1cc(-c2ccccc2)nc2ncnn12.[Cu+2].[O-][Cl+3]([O-])([O-])[O-].[O-][Cl+3]([O-])([O-])[O-].c1ccc(-c2ccccn2)nc1.c1ccc(-c2ccccn2)nc1 [(1), [Cu(bpy)2(pmtp)](ClO4)2] | 200 | 0.20 | 0.40 | – | – | 15.46 | 20 | even more toxic | even more toxic | does not alter its morphology | did not affect the viability of B16 cells
